Data taken from patent US12522603B2, “Inhibitors of gas for treating autoinflammatory diseases and cancer metastasis” (The Rockefeller University, priority 2019, dated 2026).

Assays:
[1] = system: THP1 cells; assay: Cell-based TR-FRET cGAMP assay in THP1 cells; design: species or system human; details: Table 6, PMA-differentiated THP1 cells, 90-bp dsDNA transfection 24 h
[2] = target: Human cGAS (Homo sapiens (Human), UniProt Q8N884); assay: cGAS enzyme assay using TR-FRET; assay type: biochemical; details: Table 5; human cGAS 5 nmol/L, 90 bp dsDNA 100 nmol/L, TR-FRET cGAMP detection; read-out: hcGAS enzyme assay
[3] = system: THP1-Dual cells; assay: Cell-based Lucia luciferase assay in THP1-Dual cells; details: Homo sapiens, Table 4, 100-bp dsDNA transfection 24 h, secreted luciferase reporting interferon-induced gene expression
[4] = target: h-cGAS (Homo sapiens (Human), UniProt Q8N884); assay: RapidFire mass spectroscopy assay (cGAMP formation); assay type: biochemical
[5] = Table 2, full-length h-cGAS 100 nM, dsDNA 25 nM, ATP and GTP 100 μM, 7 h RT
[6] = Table 3, compounds from related application PCT/US2019/016673, same RapidFire assay

h-cGAS, sequence (Q8N884 whole entry): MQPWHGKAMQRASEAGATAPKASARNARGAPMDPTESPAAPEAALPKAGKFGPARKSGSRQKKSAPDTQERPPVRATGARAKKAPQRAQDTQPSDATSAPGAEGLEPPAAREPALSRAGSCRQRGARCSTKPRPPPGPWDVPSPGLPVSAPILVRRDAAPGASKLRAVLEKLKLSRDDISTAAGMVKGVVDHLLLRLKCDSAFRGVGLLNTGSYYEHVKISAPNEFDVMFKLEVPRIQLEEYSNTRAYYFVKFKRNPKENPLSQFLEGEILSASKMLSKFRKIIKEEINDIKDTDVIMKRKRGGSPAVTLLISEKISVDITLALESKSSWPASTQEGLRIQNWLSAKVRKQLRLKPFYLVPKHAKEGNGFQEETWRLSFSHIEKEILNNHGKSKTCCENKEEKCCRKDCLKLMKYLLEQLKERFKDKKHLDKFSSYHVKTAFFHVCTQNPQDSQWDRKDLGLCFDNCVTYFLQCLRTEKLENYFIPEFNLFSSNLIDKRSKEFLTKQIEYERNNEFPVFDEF
Human cGAS, sequence (Q8N884 whole entry): as above

Compound	IC50 [2] [nM]	further results
1-[7,8-Dichloro-10-(1-methyl-1H-pyrazol-3-yl)-3,4-dihydropyrazino[1,2-b]indazol-2(1H)-yl]-2-hydroxyethan-1-one [Example 67]	–	IC50 [1]: 140 nM
COc1nc2c3c([nH]c2c(Cl)c1Cl)CCN(C(=O)CO)C3 [Example 1, 1-(3,4-Dichloro-2-methoxy-5,6,7,9-tetrahydro-8H-pyrrolo[3,2-b:4,5-c′]dipyridin-8-yl)-2-hydroxyethan-1-one]	190	IC50 [3]: 10.7 µM; IC50 [4, 5]: 61.6 nM; IC50 ([1]; Homo sapiens, THP-1): 2500 nM
COCC(=O)N1CCc2[nH]c3cc(Cl)ncc3c2C1 [Example 2, 1-(7-Chloro-1,3,4,5-tetrahydro-2H-pyrrolo[3,2-c:4,5-c′]dipyridin-2-yl)-2-methoxyethan-1-one]	> 30000	IC50 [4, 5]: 2410 nM
COCC(=O)N1CCn2nc3c(Cl)c(Cl)ccc3c2C1 [Example 3, 1-(7,8-Dichloro-3,4-dihydropyrazino[1,2-b]indazol-2(1H)-yl)-2-methoxyethan-1-one]	–	IC50 [4, 5]: 2470 nM
O=C(CO)N1CCn2nc3c(Cl)c(Cl)ccc3c2C1 [Example 4, 1-(7,8-Dichloro-3,4-dihydropyrazino[1,2-b]indazol-2(1H)-yl)-2-hydroxyethan-1-one]	21000	IC50 [4, 5]: 1460 nM
COCC(=O)N1CCc2nn3c(Cl)c(Cl)ccc3c2C1 [Example 5, 1-(7,8-Dichloro-3,4-dihydropyrazolo[1,5-a:4,3-c′]dipyridin-2(1H)-yl)-2-methoxyethan-1-one]	> 30000	IC50 [4, 5]: 21800 nM
O=C(CO)N1CCc2nn3c(Cl)c(Cl)ccc3c2C1 [Example 6, 1-(7,8-Dichloro-3,4-dihydropyrazolo[1,5-a:4,3-c′]dipyridin-2(1H)-yl)-2-hydroxyethan-1-one]	–	IC50 [4, 5]: 20800 nM
Cn1ccc(-c2nc(Cl)c(Cl)c3[nH]c4c(c23)CN(C(=O)CO)CC4)n1 [Example 25, 1-[6,7-Dichloro-9-(1-methyl-1H-pyrazol-3-yl)-1,3,4,5-tetrahydro-2H-pyrrolo[3,2-c:4,5-c′]dipyridin-2-yl]-2-hydroxyethan-1-one]	95	–
COCC(=O)N1CCc2[nH]c3c(Cl)c(Cl)nc(-c4ccn(C)n4)c3c2C1 [Example 30, 1-[6,7-Dichloro-9-(1-methyl-1H-pyrazol-3-yl)-1,3,4,5-tetrahydro-2H-pyrrolo[3,2-c:4,5-c′]dipyridin-2-yl]-2-methoxyethan-1-one]	210	–
Cn1ccc(-c2nc(Cl)c(Cl)c3c2c2c(n3C)CCN(C(=O)CO)C2)n1 [Example 34, 1-[6,7-Dichloro-5-methyl-9-(1-methyl-1H-pyrazol-3-yl)-1,3,4,5-tetrahydro-2H-pyrrolo[3,2-c:4,5-c′]dipyridin-2-yl]-2-hydroxyethan-1-one]	150	–
Cn1ccc(-c2cc(Cl)c(F)c3nn4c(c23)CN(C(=O)CO)CC4)n1 [Example 64, 1-[8-Chloro-7-fluoro-10-(1-methyl-1H-pyrazol-3-yl)-3,4-dihydropyrazino[1,2-b]indazol-2(1H)-yl]-2-hydroxyethan-1-one]	180	–
COCC(=O)N1CCn2nc3c(Cl)c(Cl)cc(-c4ccn(C)n4)c3c2C1 [Example 68, 1-[7,8-Dichloro-10-(1-methyl-1H-pyrazol-3-yl)-3,4-dihydropyrazino[1,2-b]indazol-2(1H)-yl]-2-methoxyethan-1-one]	240	IC50 ([1]; Homo sapiens, THP-1): 330 nM
Cn1ccc(-c2ccc(Cl)c3nn4c(c23)CN(C(=O)CO)CC4)n1 [Example 69, 1-[7-Chloro-10-(1-methyl-1H-pyrazol-3-yl)-3,4-dihydropyrazino[1,2-b]indazol-2(1H)-yl]-2-hydroxyethan-1-one]	280	–
Cc1nnc(-c2cc(Cl)c(F)c3nn4c(c23)CN(C(=O)CO)CC4)o1 [Example 70, 1-[8-Chloro-7-fluoro-10-(5-methyl-1,3,4-oxadiazol-2-yl)-3,4-dihydropyrazino[1,2-b]indazol-2(1H)-yl]-2-hydroxyethan-1-one]	7500	–
Cc1noc(-c2cc(Cl)c(F)c3nn4c(c23)CN(C(=O)CO)CC4)n1 [Example 71, 1-[8-Chloro-7-fluoro-10-(3-methyl-1,2,4-oxadiazol-5-yl)-3,4-dihydropyrazino[1,2-b]indazol-2(1H)-yl]-2-hydroxyethan-1-one]	1400	–
Cn1ccc(-c2ncc(Cl)c3[nH]c4c(c23)CN(C(=O)CO)CC4)n1 [Example 72, 1-[6-Chloro-9-(1-methyl-1H-pyrazol-3-yl)-1,3,4,5-tetrahydro-2H-pyrrolo[3,2-c:4,5-c′]dipyridin-2-yl]-2-hydroxyethan-1-one]	250	–

Compound	IC50 [2] [nM]	further results
COCC(=O)N1CCc2[nH]c3c(Cl)cnc(-c4ccn(C)n4)c3c2C1 [Example 73, 1-[6-Chloro-9-(1-methyl-1H-pyrazol-3-yl)-1,3,4,5-tetrahydro-2H-pyrrolo[3,2-c:4,5-c′]dipyridin-2-yl]-2-methoxyethan-1-one]	870	–
Cn1ccc(-c2ncc(Cl)c3c2c2c(n3C)CCN(C(=O)CO)C2)n1 [Example 74, 1-[6-Chloro-5-methyl-9-(1-methyl-1H-pyrazol-3-yl)-1,3,4,5-tetrahydro-2H-pyrrolo[3,2-c:4,5-c′]dipyridin-2-yl]-2-hydroxyethan-1-one]	290	–
COc1nc2c3c([nH]c2c(F)c1Cl)CCN(C(=O)CO)C3 [Example 75, 1-(3-Chloro-4-fluoro-2-methoxy-5,6,7,9-tetrahydro-8H-pyrrolo[3,2-b:4,5-c′]dipyridin-8-yl)-2-hydroxyethan-1-one]	550	–
COc1nc2c3c([nH]c2c(Cl)c1Cl)C(C)(C)CN(C(=O)CO)C3 [Example 76, 1-(3,4-Dichloro-2-methoxy-6,6-dimethyl-5,6,7,9-tetrahydro-8H-pyrrolo[3,2-b:4,5-c′]dipyridin-8-yl)-2-hydroxyethan-1-one]	850	–
CCOc1nc2c3c([nH]c2c(Cl)c1Cl)CCN(C(=O)CO)C3 [Example 77, 1-(3,4-Dichloro-2-ethoxy-5,6,7,9-tetrahydro-8H-pyrrolo[3,2-b:4,5-c′]dipyridin-8-yl)-2-hydroxyethan-1-one]	3000	–
CCOc1nc2c3c([nH]c2c(F)c1Cl)CCN(C(=O)CO)C3 [Example 78, 1-(3-Chloro-2-ethoxy-4-fluoro-5,6,7,9-tetrahydro-8H-pyrrolo[3,2-b:4,5-c′]dipyridin-8-yl)-2-hydroxyethan-1-one]	3700	–
O=C(CO)N1CCc2[nH]c3c(Cl)c(Cl)c(OCC4CC4)nc3c2C1 [Example 79, 1-[3,4-Dichloro-2-(cyclopropylmethoxy)-5,6,7,9-tetrahydro-8H-pyrrolo[3,2-b:4,5-c′]dipyridin-8-yl]-2-hydroxyethan-1-one]	5900	–
O=C(CO)N1CCc2[nH]c3c(F)c(Cl)c(OCC4CC4)nc3c2C1 [Example 80, 1-[3-Chloro-2-(cyclopropylmethoxy)-4-fluoro-5,6,7,9-tetrahydro-8H-pyrrolo[3,2-b:4,5-c′]dipyridin-8-yl]-2-hydroxyethan-1-one]	5000	–
O=C(CO)N1CCc2[nH]c3c(Cl)c(Cl)c(OC(F)F)nc3c2C1 [Example 81, 1-[3,4-Dichloro-2-(difluoromethoxy)-5,6,7,9-tetrahydro-8H-pyrrolo[3,2-b:4,5-c′]dipyridin-8-yl]-2-hydroxyethan-1-one]	2400	–
O=C(CO)N1CCc2[nH]c3c(F)c(Cl)c(OC(F)F)nc3c2C1 [Example 82, 1-[3-Chloro-2-(difluoromethoxy)-4-fluoro-5,6,7,9-tetrahydro-8H-pyrrolo[3,2-b:4,5-c′]dipyridin-8-yl]-2-hydroxyethan-1-one]	15000	–
N#Cc1ccc2c3c([nH]c2c1C#N)CCN(C(=O)CO)C3 [TDI-006932, reference compound]	–	IC50 [4, 6]: > 25000 nM
O=C(CO)N1CCc2[nH]c3c(Cl)c(Cl)cc(-c4cn[nH]c4)c3c2C1 [TDI-007445, reference compound]	–	IC50 [4, 6]: 27.5 nM
O=C(CO)N1CCc2[nH]c3c(Cl)c(Cl)cc(-c4ccc(NC(=O)C(F)(F)F)cc4)c3c2C1 [TDI-008458, reference compound]	–	IC50 [4, 6]: 629 nM
O=C(CO)N1CCc2[nH]c3c(F)c(Cl)cc(N4CCS(=O)(=O)C4)c3c2C1 [TDI-008867, reference compound]	–	IC50 [3]: > 10 µM; IC50 [4, 6]: 6930 nM
Cc1cc(-c2ncn(C)n2)c2c3c([nH]c2c1Cl)CCN(C(=O)CO)C3 [TDI-008989, reference compound]	–	IC50 [3]: 6.71 µM; IC50 [4, 6]: 45.9 nM
